# Experimental data from US9463195B2, “Dissolution of amyloid fibrils by flavonoids and other compounds” (The Regents of the University of California, priority 2006, dated 2016).
# Where a name gives a salt, the structure may show the parent alone. Read-outs that look alike come from different tables or passages of the source.
# How the values were obtained:
# [1] = target: T1, preformed human β-2 microglobulin fibrils (Homo sapiens, UniProt P61769); test: Thioflavin T fluorescence high-throughput screen (slope assay score) for disruption of preformed fibrils; format: biochemical; settings: for Slope Assay Score: slope of relative ThT fluorescence versus time, more negative = stronger disruption
# T1 sequence (P61769 21-119): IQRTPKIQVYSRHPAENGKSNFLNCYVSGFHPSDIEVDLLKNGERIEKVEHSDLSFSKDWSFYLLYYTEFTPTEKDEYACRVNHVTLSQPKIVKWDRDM
# Procedure: As used herein, “slope assay score” means the slope of the relative fluorescence of thioflavin T versus time curve for a given compound in a thioflavin T fluorescence assay. A negative slope signifies a decrease in thioflavin T fluorescence over time.
# The human β-2 microglobulin fibrils were prepared in vitro at 0.1 mg/mL protein in 25 mM phosphate, pH 2, 0.2 M NaCl without agitation for 1 week at 37° C., in the same manner as Ivanova et al. See Ivanova et al. (Proc Natl Acad Sci U.S.A. 2004 Jul. 20; 101(29):10584-9).
# In our experiments, disruption of the fibrillar structure of preformed β-2 microglobulin fibrils was monitored by fluorescence. The dye used, thioflavin T, serves as a probe for the presence or absence of amyloid fibrils. Thioflavin T binds specifically to human β-2 microglobulin fibrils, causing a red shift in the fluorescence excitation spectra of the dye to produce a peak in the fluorescence emission spectrum at 482 nm when the excitation wavelength is set at 444 nm. […] Because aliquotting of fibrils has an inherent variability, we aimed for a high signal/noise ratio of ˜10.
# In the fluorescence assay used here, preformed human β-2 microglobulin fibrils were mixed with a solution of 5 μM ThT in 50 mM glycine, pH 8.6 in a 3:14 ratio (final concentrations: 4.1 μM ThT, 41.2 mM glycine, 0.018 mg/mL β-2 microglobulin, 35 mM NaCl and 4.4 mM phosphate). Fluorescence was measured immediately after mixing (excitation wavelength set at 444 nm, emission wavelengths at 482, 490, and 502 nm) with a Molecular Devices FlexStation II.
# In our experiments, we screened 5200 compounds to determine whether a compound could disrupt preformed human β-2 microglobulin fibrils. Preformed β-2 microglobulin fibrils and ThT were mixed in the ratios described above in Example 2 and divided among seventeen 384-well glass-bottom plates (Costar #6569) using 40 μL/well. Each of the sixteen commercial plates contained four columns of control wells: columns 1, 2, and 23 contained preformed fibrils+dimethylsulfoxide (herein, DMSO), but no compound; column 24 contained nonfibrillar β2M+DMSO (no compound). The final concentrations of compound and DMSO in the other wells were 10 μM and 1%, respectively. Compounds were obtained from the following chemical libraries: the MicroSource Discovery Systems, Inc. Spectrum Collection library (J Virology 77: 10288 (2003); Ann Rev Med 56: 321 (2005)), the first four plates from the Prestwick Chemical Inc. library, two BIOMOL plates (phosphatase/kinase inhibitor library and bioactive lipid library), and the first five plates from the ChemBridge Corporation DIVERSet.
# Plate 17 was prepared in-house and set up slightly differently than the commercial plates. Column 24 contains nonfibrillar B2M as in the other plates. However, only the first two rows contain added compounds, and the remaining rows contain control samples (fibrils mixed with thioflavin T, no compound). The chemicals used to prepare this supplemental plate were purchased from SIGMA. For each compound, a 1 mM solution in OmniSolv DMSO was prepared and filtered with Millex-FG 0.2 micron filters. The supplementary plate contained compounds at 1 or 10 mM in 100% DMSO, such that the final screening concentration is 10 or 100 μM compound in I% DMSO.
# All plates were read manually on a Molecular Devices FlexStation II using the bottom-read function. For each of the wells, an initial fluorescence intensity measurement was taken as a baseline.
# [2] = target: T1, preformed human β-2 microglobulin fibrils; test: Dose-response testing by thioflavin T fluorescence; format: biochemical; settings: for Dose-Response (conc. at which slope is better than control): ThT/β2M fibril fluorescence, tested 100 nM to 10 mM; for concentration at which preformed human B2M fibrils are disrupted: in the range of
# Procedure: Twelve compounds were selected for testing their dose-response effects. Dose-response curves were derived as follows. Preformed β-2 microglobulin fibrils were mixed with ThT in the ratios described above and divided into portions of 40 μL per well across 8 wells. The final concentrations were the same as used in the high-throughput screen: 4.1 μM ThT, 41.2 mM glycine, 0.018 mg/mL B2M, 35 mM NaCl, 4.4 mM phosphate. The first and last wells of each row were controls (B2M fibrils+ThT+solvent (water or DMSO)). To wells 2-7 of a given row, test compound was added to the β2M fibril/ThT mix such that the following final concentrations in the well were reached: 10 mM, 1 mM, 100 μM, 10 μM, 1 μM, and 100 nM. Each row was set up in duplicate. The wells were incubated for 99 hours and data collected at 2.5 hour intervals. Compound 22 was tested using both water and DMSO as solvent.
# It is visually apparent that concentrations down to 10 μM of both compound 22 and L18 affect the B2M/Tht fluorescence.
# [3] = system: preformed β-amyloid fibrils; settings: Bush 2002; cited from earlier work
# β-amyloid fibrils = settings: Bush study; cited from earlier work
# [4] = orally at doses at least twice this high (Ullmann, Haller et al. 2004); cited from earlier work
# [5] = cited from earlier work
# [6] = target: T1, preformed human β-2 microglobulin fibrils; test: Electron microscopy as a secondary screen of fibril disruption; format: biochemical; settings: for state of fibrils by electron microscopy at 10 μM compound / state of fibrils by electron microscopy at 1 mM compound / state of fibrils by electron microscopy at 100 μM compound: two-week incubation; for effect on fibrils by electron microscopy: at the concentrations tested
# Procedure: Electron microscopy was used to confirm the effects of, among others, compounds 22 and L18 on the fibrils. Compounds 22 and L18 were mixed with drug and solvent or solvent alone and were separately incubated with preformed human β-2 microglobulin fibrils for two weeks. Compound 22 was tested at three concentrations (1 mM, 100 μM, and 10 μM). Aliquots were taken immediately after mixing, at day 2, at day 5, day 7, and day 14. Samples were fixed to grids (made hydrophilic by glow-discharge) upon taking the aliquots, washed with distilled water, and stained with 1% uranyl acetate. Grids were examined in a Hitachi H-7000 transmission electron microscope operating at 75 kV. Images were collected on Kodak electron microscope film 4489.
# [7] = Gordon M et al 2006; cited from earlier work
Molecule,effective in the fluorescence assay at disrupting β-2 microglobulin fibers [1],Slope Assay Score [1],concentration at which the compound affects thioflavin T/β-2M fibril fluorescence in a dose-dependent manner [2],dose-dependent effect on thioflavin T/β-2 microglobulin fibril fluorescence (words) [2],Dose-Response (conc. at which slope is better than control) [2] [µM],effect on fibrils by electron microscopy [6],also measured
CN1CCc2cccc3c2[C@H]1Cc1ccc(O)c(O)c1-3 [Apomorphine hydrochloride hemihydrate],effective,−.061,less than or equal to 1 μM,dose-dependent effect,1 to 10,–,–
Oc1c(I)cc(Cl)c2cccnc12 [Clioquinol],–,–,–,–,–,–,disruption of preformed β-amyloid fibrils [3]: disrupts; effectiveness in mice (β-amyloid fibrils): effective
"O=C(O[C@@H]1Cc2c(O)cc(O)cc2O[C@@H]1c1cc(O)c(O)c(O)c1)c1cc(O)c(O)c(O)c1 [Compound 22, Epigallocatechin gallate]",disrupts,−.087,10 µM,dose-dependent,10,had an effect on fibrils,"oral tolerability [4]: well-tolerated; average plasma level ([5]; patients, single oral dose (Chow et al. 2001)): 1 µM; plasma levels reached ([5]; single oral dose (Nakagawa, Okuda and Miyazawa 1997)): 4.4 µM; human plasma levels reached ([5]; single oral dose (Unno et al. 1996)): 2 to 4 µM; concentration at which preformed human B2M fibrils are disrupted [2]: ~10 µM; dose-dependent effect on thioflavin T/β-2 microglobulin fibril fluorescence (words) ([2]; listed as EGCG): dose-related effects; state of fibrils by electron microscopy at 10 μM compound [6]: significantly disrupted; state of fibrils by electron microscopy at 1 mM compound [6]: almost all of the fibrils; solubility in water (Solubility in water): soluble"
"NC(CO)C(=O)NNCc1ccc(O)c(O)c1O (centres unmarked) [Compound L18, benserazide hydrochloride]",–,−.066,10 µM,–,10,had an effect on fibrils,"dose-dependent effect on thioflavin T/β-2 microglobulin fibril fluorescence (words) ([2]; hydrochloride): dose-dependent; concentration at which preformed human B2M fibrils are disrupted [2]: ~10 µM; dose-dependent effect on thioflavin T/β-2 microglobulin fibril fluorescence (words) ([2]; listed as benserazide, hydrochloride): dose-related effects; plasma concentrations routinely achievable [7]: 6 µM"
Cc1cc(O)c(C=O)c(O)c1C(=O)O [Haematommic Acid],effective,−.076,less than or equal to 10 μM,dose-dependent effect,1,visibly disrupted,state of fibrils by electron microscopy at 10 μM compound [6]: disrupted and unwound; state of fibrils by electron microscopy at 1 mM compound [6]: fibril dissolution was virtually complete
C=C1c2c(Cl)ccc(O)c2C(O)=C2C(=O)[C@]3(O)C(=O)/C(=C(\N)O)C(=O)[C@@H](N(C)C)[C@@H]3[C@@H](O)[C@H]12 [Meclocycline sulfosalicylate],effective,−.066,less than or equal to 10 μM,dose-dependent effect,10,visibly disrupted,state of fibrils by electron microscopy at 100 μM compound [6]: no intact fibrils present; state of fibrils by electron microscopy at 1 mM compound [6]: no visible fibrils
COc1cc(NC(C)CCCN)c2ncccc2c1 (centres unmarked) [Primaquine diphosphate],effective,−.058,less than or equal to 10 μM,dose-dependent effect,10,–,–
COc1cc(C)c2c(c1C=O)Oc1c(c(C)c(O)c3c1C(O)OC3=O)OC2=O (centres unmarked) [Stictic Acid],effective,−.098,≤ 10 µM,dose-dependent effect,10,visibly disrupted,state of fibrils by electron microscopy at 100 μM compound [6]: mostly disrupted; state of fibrils by electron microscopy at 1 mM compound [6]: mostly disappeared
Cc1c(C(=O)O)c(O)cc2c1C(=O)c1c(O)c([C@@H]3O[C@H](CO)[C@@H](O)[C@H](O)[C@H]3O)c(O)c(O)c1C2=O [carminic acid],effective,–,–,–,–,–,–
Cc1cc(N)c2ccccc2[n+]1CCCCCCCCCC[n+]1c(C)cc(N)c2ccccc21 [dequalinium dichloride],effective,–,–,–,–,–,–
Clc1ccc(COC(Cn2ccnc2)c2ccc(Cl)cc2Cl)cc1 (centres unmarked) [econazole nitrate],effective,–,–,–,–,–,–
COC(=O)c1c(C)c2c(c(C)c1O)OC(=O)c1c(C)c(Cl)c(O)c(Cl)c1O2 [leoidin],effective,–,–,–,–,–,–
CCn1cc(C(=O)O)c(=O)c2ccc(C)nc21 [nalidixic acid],effective,–,–,–,–,–,–
NCCc1cc(O)c(O)cc1O [oxidopamine],effective,–,–,–,–,–,–
OC[C@H]1O[C@@H](Oc2cc(O)cc(/C=C/c3ccc(O)cc3)c2)[C@H](O)[C@@H](O)[C@@H]1O [resveratrol-3-glucoside],–,–,–,–,–,did not have an effect on fibrils,–
Dobutamine hydrochloride,effective,−.058,less than or equal to 10 μM,dose-dependent effect,10,–,–
